System: dandelion
Experiment: Greenhouse pot test, postemergent spray, visual control rating converted to percent control
Assay type: in vivo
How it was run: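 Steps: grow in soilless greenhouse media; spray at 43.46 gallons/acre; hold in greenhouse; score visually at 24 h to 21 days after treatment on a 1–9 scale; convert to percent control. Colby's two- and three-way equations give expected inhibition for mixtures.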

Compound: O=C(O)c1c(Cl)ccc2cc(Cl)cnc12 [Quinclorac, 3,7-dichloro-8-quinolinecarboxylic acid]
- % Control Dandelion (Test 1, 7 DAT, 0.18 lbs/A): 33.3%
- Control (1-9) Dandelion (Test 1, 7 DAT, 0.18 lbs/A): 3
- % Control Dandelion (Test 1, 7 DAT, 0.375 lbs/A): 33.3%
- Control (1-9) Dandelion (Test 1, 7 DAT, 0.375 lbs/A): 3
- % Control Dandelion (Test 1, 7 DAT, 0.75 lbs/A): 33.3%
- Control (1-9) Dandelion (Test 1, 7 DAT, 0.75 lbs/A): 3
- % Control Dandelion (Test 1, 14 DAT, 0.18 lbs/A): 88.9%
- Control (1-9) Dandelion (Test 1, 14 DAT, 0.18 lbs/A): 8
- % Control Dandelion (Test 1, 14 DAT, 0.375 lbs/A): 77.8%
- Control (1-9) Dandelion (Test 1, 14 DAT, 0.375 lbs/A): 7
- % Control Dandelion (Test 1, 14 DAT, 0.75 lbs/A): 66.7%
- Control (1-9) Dandelion (Test 1, 14 DAT, 0.75 lbs/A): 6
- % Control Dandelion (Test 1, 24 HAT, 0.18 lbs/A): 22.2%
- Control (1-9) Dandelion (Test 1, 24 HAT, 0.18 lbs/A): 2
- % Control Dandelion (Test 1, 24 HAT, 0.375 lbs/A): 11.1%
- Control (1-9) Dandelion (Test 1, 24 HAT, 0.375 lbs/A): 1
- % Control Dandelion (Test 1, 24 HAT, 0.75 lbs/A): 11.1%
- Control (1-9) Dandelion (Test 1, 24 HAT, 0.75 lbs/A): 1
- % Control Dandelion (Test 1, 48 HAT, 0.18 lbs/A): 33.3%
- Control (1-9) Dandelion (Test 1, 48 HAT, 0.18 lbs/A): 3
- % Control Dandelion (Test 1, 48 HAT, 0.375 lbs/A): 33.3%
- Control (1-9) Dandelion (Test 1, 48 HAT, 0.375 lbs/A): 3
- % Control Dandelion (Test 1, 48 HAT, 0.75 lbs/A): 33.3%
- Control (1-9) Dandelion (Test 1, 48 HAT, 0.75 lbs/A): 3
- % Control Dandelion (Test 2, 7 DAT, 0.18 lbs/A): 88.9%
- Control (1-9) Dandelion (Test 2, 7 DAT, 0.18 lbs/A): 8
- % Control Dandelion (Test 2, 7 DAT, 0.375 lbs/A): 33.3%
- Control (1-9) Dandelion (Test 2, 7 DAT, 0.375 lbs/A): 3
- % Control Dandelion (Test 2, 7 DAT, 0.75 lbs/A): 33.3%
- Control (1-9) Dandelion (Test 2, 7 DAT, 0.75 lbs/A): 3
- % Control Dandelion (Test 2, 14 DAT, 0.18 lbs/A): 88.9%
- Control (1-9) Dandelion (Test 2, 14 DAT, 0.18 lbs/A): 8
- % Control Dandelion (Test 2, 14 DAT, 0.375 lbs/A): 88.9%
- Control (1-9) Dandelion (Test 2, 14 DAT, 0.375 lbs/A): 8
- % Control Dandelion (Test 2, 14 DAT, 0.75 lbs/A): 66.7%
- Control (1-9) Dandelion (Test 2, 14 DAT, 0.75 lbs/A): 6
- % Control Dandelion (Test 2, 24 HAT, 0.18 lbs/A): 22.2%
- Control (1-9) Dandelion (Test 2, 24 HAT, 0.18 lbs/A): 2
- % Control Dandelion (Test 2, 24 HAT, 0.375 lbs/A): 22.2%
- Control (1-9) Dandelion (Test 2, 24 HAT, 0.375 lbs/A): 2
- % Control Dandelion (Test 2, 24 HAT, 0.75 lbs/A): 22.2%
- Control (1-9) Dandelion (Test 2, 24 HAT, 0.75 lbs/A): 2
- % Control Dandelion (Test 2, 72 HAT, 0.18 lbs/A): 55.6%
- Control (1-9) Dandelion (Test 2, 72 HAT, 0.18 lbs/A): 5
- % Control Dandelion (Test 2, 72 HAT, 0.375 lbs/A): 33.3%
- Control (1-9) Dandelion (Test 2, 72 HAT, 0.375 lbs/A): 3
- % Control Dandelion (Test 2, 72 HAT, 0.75 lbs/A): 33.3%
- Control (1-9) Dandelion (Test 2, 72 HAT, 0.75 lbs/A): 3
- % Control Dandelion (Test 4, 7 DAT, 0.18 lbs/A): 22.2%
- Control (1-9) Dandelion (Test 4, 7 DAT, 0.18 lbs/A): 2
- % Control Dandelion (Test 4, 7 DAT, 0.375 lbs/A): 22.2%
- Control (1-9) Dandelion (Test 4, 7 DAT, 0.375 lbs/A): 2
- % Control Dandelion (Test 4, 7 DAT, 0.75 lbs/A): 22.2%
- Control (1-9) Dandelion (Test 4, 7 DAT, 0.75 lbs/A): 2
- % Control Dandelion (Test 4, 14 DAT, 0.18 lbs/A): 22.2%
- Control (1-9) Dandelion (Test 4, 14 DAT, 0.18 lbs/A): 2
- % Control Dandelion (Test 4, 14 DAT, 0.375 lbs/A): 22.2%
- Control (1-9) Dandelion (Test 4, 14 DAT, 0.375 lbs/A): 2
- % Control Dandelion (Test 4, 14 DAT, 0.75 lbs/A): 22.2%
- Control (1-9) Dandelion (Test 4, 14 DAT, 0.75 lbs/A): 2

Source: patent publication US20040266623A1, “SYNERGISTIC QUINCLORAC HERBICIDAL COMPOSITIONS” (priority 2003, published 2004)
